# Data: US8865659B2, “Compositions for prevention or treatment of Hepatitis C virus containing ginsenoside Rg3 as an active ingredient” (priority 2012, dated 2014)
# Key:
# HCV CORE = assay: Western blotting against HCV CORE in JFH-1 infected Huh 7.5.1 cells; type: cell-based, Hepatitis C virus (JFH-1)
# Procedure: (§1) The experiment was carried out as follow. First, 200,000 Huh 7.5.1 cells were placed in a 60×15 mm cell culture dish. Next day, Japanese Fulminant Hepatitis-1 virus (JFH-1) stock vial which was stored in −70° C. refrigerator was taken out and thawed out in a container filled with ice-water. The culture medium was collected from the cultured 60×15 mm cell culture dish, washed with 1×PBS and collected, again. 1.5 ml of JFH-1 virus solution per 60×15 mm cell culture dish each was added. The dish was shaken to cover the surface sufficiently. The dish was laid in a 5% CO2 incubator at 37° C. for 6 hours and after that, the supernatant was draw out. 1×PBS was spread on the cell surface as slow as possible and after one time washing, cells were collected. 5 ml of cell culture media was added to control and JFH-1 treatments groups. At the last step of virus-infection, 5 ml CM and each […] of ginsenosides which was set to 50 mM concentration were added to the cell culture media. After that, the cell culture media was laid in a 5% CO2 incubator at 37° C. After 72 hours, the following steps were carried out.
# As described in the above Example 3, the Huh 7.5.1 cells were treated with each 100 μM of seven ginsenosides (Ro, Re, Rg1, Rg2, Rg3, Rh1, Rh2). After 72 hours, a western blotting analysis was carried out for analyzing virus suppression effect against HCV CORE and cleaved PARP.
# Specific western blotting analysis carried out was as follow. First, the above described samples were prepared, mixed with a sample buffer in tubes and heated at 100° C. for 10 minutes. The tubes were cooled on ice and centrifuged. The electrophoresis was carried out with the above samples and molecular weight markers, and then they were transferred to a PVDF membrane (hydrophobic). After blocking with 5% skin milk for an hour, each primary antibody was added. After staying overnight at 4° C., washings three times for every 10 minutes were conducted, and the blocking was carried out with 5% skin milk for an hour at the room temperature. After that, each secondary antibody was added, and the reaction for an hour and washing three times for every 10 minutes were conducted. Then, the membrane was stained by 1:1 mix with detection reagents A (Luminol Enhancer solution) and B (Peroxide solution) and developed with X ray film.
# To examine the dose-dependent anti-virus effect of ginsenoside Rg3, western blotting analysis against cleaved PARP and HCV CORE were carried out with the samples of ginsenosides Rg3 treatment concentration at 10 μM, 25 μM, 50 μM and 100 μM each.
# To examine the dose-dependent anti-virus effect of ginsenoside Rh2, western blotting analysis against cleaved PARP and HCV CORE were carried out with the samples of ginsenosides Rh2 treatment concentration at 10 μM, 25 μM and 50 μM each. […]
# TNF-α = assay: Real-time PCR for TNF-α level in virus-infected Huh 7.5.1 cells; type: cell-based
# Procedure: To identify a mechanism of apoptosis action, virus-infected Huh 7.5.1 cells were treated with ginsenoside Rg3 and conducted real-time PCR (Taqman Real-time Quantitative RT-PCR Assay for HCV RNA Detection) to estimate TNF-α level.
# First, a total number of 50,000 Huh 7.5.1 cells were incubated in 24 well and a total RNA was extracted from the above stated treated cells using Rneasy mini kit (QIAGEN Corp.). And then, the total RNA was quantified by Nanodrop 1000 (Thermo Scientific Corp.), and manufactured cDNA by conducting RT PCR (Reverse Transcription-PCR) using i cycler, (BIO-RAD Co.). After the synthesized cDNAs were reacted with TaqMan GX Master Mix (Applied Biosystems, Branchburg, N.J.), TNF-α, B-actin mRNAs were quantified by 96 well real-time PCR (StepOne Plus Sequence detector system, Applied Biosystems). Verified primer/probe set was purchased to conduct the TaqMan Gene Expression assay in this experiment (Gene: TNF-α (TNF-alpha) # Hs01113624_g1, Gene Symbol: ACTB # Hs99999903_m1).
# phospho-NFκB = assay: Western blotting onto NFκB and phospho-NFκB in JFH-1 infected Huh 7.5.1 cells; type: cell-based; settings: 100 μM, 72 hours
# Source text: Conducted western blotting onto NFκB and phospho-NFκB which are transcription factors of virus suppression mechanism of ginsenosides to a hepatoma cell line.
# Specifically, it is known that when cells are infected with hepatitis C viruses, TNF-α in the cells increases and, apoptosis actions in the cells increases due to an anti-apoptotic factor, NFkB decreases. Additionally, identification of phosphor-NFκB among NFκB (total) is important to know activation level of NFκB.
# Herein, western blotting analysis onto NFκB and phospho-NFκB, transcription factors, was carried out to identify the TNF-α mediated apoptotic signaling pathway. The TNF-α is induced by Hepatitis C. The analysis was conducted 72 hours after the samples of Huh 7.5.1 cells treated with each 100 μM of seven ginsenosides (Ro, Re, Rg1, Rg2, Rg3, Rh1, Rh2) as above stated in Example 3.
# Specifically, the western blotting analysis was carried out as follow. First, the above described samples were prepared, mixed with a sample buffer in tubes and heated at 100° C. for 10 minutes. The tubes were cooled on ice and centrifuged. The electrophoresis was carried out with the prepared samples and molecular weight markers were put in. And then, they were transferred to a PVDF membrane (hydrophobic). After blocking with 5% skin milk for an hour, primary antibodies of NFκB and phospho-NFκB were added. […]
# cleaved PARP = assay: Western blotting against cleaved PARP (apoptosis) in JFH-1 infected Huh 7.5.1 cells; type: cell-based
# Procedure: as §1
# As described in the above Example 3, the Huh 7.5.1 cells were treated with each 100 μM of seven ginsenosides (Ro, Re, Rg1, Rg2, Rg3, Rh1, Rh2). After 72 hours, a western blotting analysis was carried out for analyzing virus suppression effect against HCV CORE and cleaved PARP. […]
smiles,measurement,setting,value
CC(C)=CCC[C@](C)(O)[C@H]1CC[C@]2(C)[C@@H]1[C@H](O)C[C@@H]1[C@@]3(C)CC[C@H](O[C@@H]4O[C@H](CO)[C@@H](O)[C@H](O)[C@H]4O[C@@H]4O[C@H](CO)[C@@H](O)[C@H](O)[C@H]4O)C(C)(C)[C@@H]3CC[C@]12C [ginsenoside Rg3],"virus suppression effect (HCV CORE), dose dependence","HCV CORE; 10 μM, 25 μM, 50 μM and 100 μM",dose-dependent manner
same,HCV CORE,"HCV CORE; 100 μM, 72 hours",remarkably decreased
same,anti-virus effect compared with interferon,HCV CORE; comparison with PegIFN alpha-2b,same anti-virus effect as the interferon therapeutics
same,level of TNF-α,TNF-α,remarkably decreased
same,apoptosis of cells,phospho-NFκB,remarkably decreased
same,"apoptosis of the cells (cleaved PARP), dose dependence","cleaved PARP; 10 μM, 25 μM, 50 μM and 100 μM",dose-dependent manner
same,cleaved PARP,"cleaved PARP; 100 μM, 72 hours",decreased
